Measured values reported in article PMC7265341, “Quantifying CDK inhibitor selectivity in live cells” (Nature Communications, 2020).
Where two headings read alike, the source gives them in different places.

Key:
[1] = biological target: CDK7 (Homo sapiens, UniProt P50613); experiment: NanoBRET live-cell target engagement, NanoLuc-CDK7 in HEK-293; type: binding; details: CDK7, 10µM
[2] = biological target: CDK9/Cyclin K (Homo sapiens, UniProt P50750); experiment: NanoBRET live-cell target engagement, NanoLuc-CDK9/Cyclin K in HEK-293; type: binding; details: CDK9/K, 10µM
[3] = biological target: CDK16/Cyclin Y (Homo sapiens, UniProt Q00536); experiment: NanoBRET live-cell target engagement, CDK16-NanoLuc/Cyclin Y in HEK-293; type: binding; details: CDK16/Y, 10µM
[4] = biological target: CDK14/Cyclin Y (Homo sapiens, UniProt O94921); experiment: NanoBRET live-cell target engagement, CDK14-NanoLuc/Cyclin Y in HEK-293; type: binding; details: CDK14/Y, 10µM
[5] = biological target: CDK8/Cyclin C (Homo sapiens, UniProt P49336); experiment: NanoBRET live-cell target engagement, NanoLuc-CDK8/Cyclin C in HEK-293; type: binding; details: CDK8/C, 10µM
Chain of CDK8/Cyclin C (P49336 whole entry): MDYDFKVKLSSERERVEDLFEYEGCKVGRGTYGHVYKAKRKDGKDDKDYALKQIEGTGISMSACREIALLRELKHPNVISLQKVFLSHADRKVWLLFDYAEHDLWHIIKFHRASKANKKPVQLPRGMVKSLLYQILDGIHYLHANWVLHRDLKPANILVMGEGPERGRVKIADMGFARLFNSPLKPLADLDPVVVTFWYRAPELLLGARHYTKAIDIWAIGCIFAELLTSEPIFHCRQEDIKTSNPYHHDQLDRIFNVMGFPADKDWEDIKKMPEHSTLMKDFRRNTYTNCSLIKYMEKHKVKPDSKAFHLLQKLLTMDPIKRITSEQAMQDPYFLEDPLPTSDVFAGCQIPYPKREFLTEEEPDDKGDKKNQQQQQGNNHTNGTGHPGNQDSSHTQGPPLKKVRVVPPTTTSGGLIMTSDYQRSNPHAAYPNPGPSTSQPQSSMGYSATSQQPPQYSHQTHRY
Chain of CDK8/Cyclin C (P24863 whole entry partner): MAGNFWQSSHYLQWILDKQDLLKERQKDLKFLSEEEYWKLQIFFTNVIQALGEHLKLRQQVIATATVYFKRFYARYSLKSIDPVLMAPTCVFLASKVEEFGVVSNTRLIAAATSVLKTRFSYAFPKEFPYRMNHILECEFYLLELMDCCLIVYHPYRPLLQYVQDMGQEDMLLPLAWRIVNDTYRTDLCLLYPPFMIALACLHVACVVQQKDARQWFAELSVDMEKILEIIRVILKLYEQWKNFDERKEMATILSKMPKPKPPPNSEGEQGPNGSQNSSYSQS

[6] = biological target: CDK17/Cyclin Y (Homo sapiens, UniProt Q00537); experiment: NanoBRET live-cell target engagement, CDK17-NanoLuc/Cyclin Y in HEK-293; type: binding; details: CDK17/Y, 10µM
Chain of CDK17/Cyclin Y (Q00537 whole entry): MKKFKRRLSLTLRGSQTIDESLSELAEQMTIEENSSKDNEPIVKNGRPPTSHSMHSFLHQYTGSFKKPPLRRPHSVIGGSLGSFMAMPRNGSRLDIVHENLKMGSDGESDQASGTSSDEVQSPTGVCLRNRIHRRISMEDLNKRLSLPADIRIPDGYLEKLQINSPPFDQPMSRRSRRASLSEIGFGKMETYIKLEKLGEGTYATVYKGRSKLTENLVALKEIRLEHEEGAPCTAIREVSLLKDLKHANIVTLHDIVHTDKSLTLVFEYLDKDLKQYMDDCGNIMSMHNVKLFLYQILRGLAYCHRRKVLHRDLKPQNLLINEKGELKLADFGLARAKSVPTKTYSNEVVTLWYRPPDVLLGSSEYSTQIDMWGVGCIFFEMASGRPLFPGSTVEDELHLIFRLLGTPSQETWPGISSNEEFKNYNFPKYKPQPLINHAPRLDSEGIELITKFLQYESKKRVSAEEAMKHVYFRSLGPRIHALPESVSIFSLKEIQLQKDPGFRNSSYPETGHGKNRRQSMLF
Chain of CDK17/Cyclin Y (Q8ND76 whole entry partner): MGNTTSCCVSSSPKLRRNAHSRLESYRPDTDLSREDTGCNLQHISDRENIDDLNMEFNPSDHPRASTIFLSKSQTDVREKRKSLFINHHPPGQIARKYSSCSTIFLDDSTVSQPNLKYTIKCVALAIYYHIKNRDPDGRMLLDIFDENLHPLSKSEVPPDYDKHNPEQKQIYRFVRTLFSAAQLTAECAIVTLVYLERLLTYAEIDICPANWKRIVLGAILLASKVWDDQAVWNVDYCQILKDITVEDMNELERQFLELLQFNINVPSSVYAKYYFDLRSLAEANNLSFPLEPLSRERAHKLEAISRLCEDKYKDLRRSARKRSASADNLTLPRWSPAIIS

[7] = biological target: CDK10/Cyclin L2 (Homo sapiens, UniProt Q15131); experiment: NanoBRET live-cell target engagement, CDK10-NanoLuc/Cyclin L2 in HEK-293; details: 10µM
Chain of CDK10/Cyclin L2 (Q15131 whole entry): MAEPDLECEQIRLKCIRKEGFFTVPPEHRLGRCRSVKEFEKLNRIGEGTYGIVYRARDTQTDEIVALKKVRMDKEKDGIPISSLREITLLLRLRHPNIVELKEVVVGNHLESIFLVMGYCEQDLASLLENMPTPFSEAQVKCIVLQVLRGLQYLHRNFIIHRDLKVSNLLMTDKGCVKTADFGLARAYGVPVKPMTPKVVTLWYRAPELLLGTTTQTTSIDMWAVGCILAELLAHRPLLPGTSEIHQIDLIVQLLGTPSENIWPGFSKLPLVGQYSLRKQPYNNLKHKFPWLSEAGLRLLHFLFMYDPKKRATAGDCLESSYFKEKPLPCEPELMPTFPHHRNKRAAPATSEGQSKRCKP

[8] = biological target: CDK12/Cyclin K (Homo sapiens, UniProt Q9NYV4); experiment: NanoBRET live-cell target engagement, CDK12-NanoLuc/Cyclin K in HEK-293; type: binding; details: 10µM
Chain of CDK12/Cyclin K (Q9NYV4 1-1481 isoform Q9NYV4-2): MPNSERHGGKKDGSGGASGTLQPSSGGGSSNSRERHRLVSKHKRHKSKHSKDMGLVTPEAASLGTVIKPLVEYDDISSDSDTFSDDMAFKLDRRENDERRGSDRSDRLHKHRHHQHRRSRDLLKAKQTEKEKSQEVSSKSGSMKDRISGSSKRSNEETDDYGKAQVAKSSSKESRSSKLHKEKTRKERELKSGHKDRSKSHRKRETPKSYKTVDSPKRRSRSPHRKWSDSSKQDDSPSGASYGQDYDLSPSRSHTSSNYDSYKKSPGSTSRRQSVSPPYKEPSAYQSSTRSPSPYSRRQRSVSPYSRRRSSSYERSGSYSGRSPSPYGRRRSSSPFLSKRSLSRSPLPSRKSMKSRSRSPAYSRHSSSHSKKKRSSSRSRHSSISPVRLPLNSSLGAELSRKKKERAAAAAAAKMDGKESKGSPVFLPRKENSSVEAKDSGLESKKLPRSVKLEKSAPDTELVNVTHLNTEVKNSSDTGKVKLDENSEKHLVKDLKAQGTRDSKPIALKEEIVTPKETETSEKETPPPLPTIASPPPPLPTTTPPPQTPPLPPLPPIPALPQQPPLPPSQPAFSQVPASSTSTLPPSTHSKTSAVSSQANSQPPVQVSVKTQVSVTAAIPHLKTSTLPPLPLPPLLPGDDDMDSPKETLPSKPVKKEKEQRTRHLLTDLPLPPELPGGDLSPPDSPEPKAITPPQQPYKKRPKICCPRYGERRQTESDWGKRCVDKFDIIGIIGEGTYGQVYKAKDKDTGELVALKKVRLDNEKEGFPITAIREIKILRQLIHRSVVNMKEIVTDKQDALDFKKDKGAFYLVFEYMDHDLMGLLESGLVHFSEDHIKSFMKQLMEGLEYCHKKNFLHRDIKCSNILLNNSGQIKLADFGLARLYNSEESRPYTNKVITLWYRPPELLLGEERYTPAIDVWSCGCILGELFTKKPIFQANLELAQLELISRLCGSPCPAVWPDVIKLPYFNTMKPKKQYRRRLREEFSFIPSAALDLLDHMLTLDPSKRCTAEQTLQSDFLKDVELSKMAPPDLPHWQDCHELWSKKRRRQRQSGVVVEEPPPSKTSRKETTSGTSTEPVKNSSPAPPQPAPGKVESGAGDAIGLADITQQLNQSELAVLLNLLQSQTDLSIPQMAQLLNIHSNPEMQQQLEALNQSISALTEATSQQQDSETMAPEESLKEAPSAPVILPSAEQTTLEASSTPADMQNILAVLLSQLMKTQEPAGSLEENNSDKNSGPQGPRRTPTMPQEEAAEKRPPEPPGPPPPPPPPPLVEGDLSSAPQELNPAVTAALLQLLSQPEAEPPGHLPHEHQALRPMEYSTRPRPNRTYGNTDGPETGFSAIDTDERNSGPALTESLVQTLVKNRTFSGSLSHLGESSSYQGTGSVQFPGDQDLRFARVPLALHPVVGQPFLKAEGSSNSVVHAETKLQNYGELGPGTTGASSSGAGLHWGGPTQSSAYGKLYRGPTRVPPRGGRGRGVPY
Chain of CDK12/Cyclin K (O75909 whole entry partner): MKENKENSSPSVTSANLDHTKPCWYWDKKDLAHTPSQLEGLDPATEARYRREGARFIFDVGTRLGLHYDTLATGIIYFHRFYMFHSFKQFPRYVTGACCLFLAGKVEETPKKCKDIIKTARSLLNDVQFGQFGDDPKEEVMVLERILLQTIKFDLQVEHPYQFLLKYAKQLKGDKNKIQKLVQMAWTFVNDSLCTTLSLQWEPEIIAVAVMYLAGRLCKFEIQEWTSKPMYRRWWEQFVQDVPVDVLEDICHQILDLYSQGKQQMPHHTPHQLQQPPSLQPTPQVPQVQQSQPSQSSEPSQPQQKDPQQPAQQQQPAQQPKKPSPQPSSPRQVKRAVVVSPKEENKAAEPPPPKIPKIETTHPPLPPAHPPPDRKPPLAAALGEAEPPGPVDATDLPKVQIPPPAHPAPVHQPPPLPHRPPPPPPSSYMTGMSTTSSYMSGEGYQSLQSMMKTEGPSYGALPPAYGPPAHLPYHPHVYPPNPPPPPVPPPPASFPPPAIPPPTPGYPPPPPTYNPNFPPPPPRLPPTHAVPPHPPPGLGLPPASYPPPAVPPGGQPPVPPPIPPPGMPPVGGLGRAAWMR

[9] = biological target: CDK11B/Cyclin L2 (Homo sapiens, UniProt P21127); experiment: NanoBRET live-cell target engagement, CDK11B-NanoLuc/Cyclin L2 in HEK-293; type: binding; details: CDK11b/L2, 10µM
[10] = biological target: CDK4/Cyclin D1 (Homo sapiens, UniProt P11802); experiment: NanoBRET live-cell target engagement, NanoLuc-CDK4/Cyclin D1 in HEK-293; type: binding; details: CDK4/D1, 10µM
[11] = biological target: CDK2/Cyclin E1 (Homo sapiens, UniProt P24941); experiment: NanoBRET live-cell target engagement, CDK2-NanoLuc/Cyclin E1 in HEK-293; type: binding; details: CDK2/E1, 10µM
[12] = biological target: CDK5/CDK5R1 (Homo sapiens, UniProt Q00535); experiment: NanoBRET live-cell target engagement, CDK5-NanoLuc/CDK5R1 in HEK-293; type: binding; details: CDK5/CDK5R1, 10µM
[13] = biological target: CDK15/Cyclin Y (Homo sapiens, UniProt Q96Q40); experiment: NanoBRET live-cell target engagement, NanoLuc-CDK15/Cyclin Y in HEK-293; type: binding; details: CDK15/Y, 10µM
[14] = biological target: CDK3/Cyclin E1 (Homo sapiens, UniProt Q00526); experiment: NanoBRET live-cell target engagement, CDK3-NanoLuc/Cyclin E1 in HEK-293; type: binding; details: CDK3/E1, 10µM
Chain of CDK3/Cyclin E1 (Q00526 whole entry): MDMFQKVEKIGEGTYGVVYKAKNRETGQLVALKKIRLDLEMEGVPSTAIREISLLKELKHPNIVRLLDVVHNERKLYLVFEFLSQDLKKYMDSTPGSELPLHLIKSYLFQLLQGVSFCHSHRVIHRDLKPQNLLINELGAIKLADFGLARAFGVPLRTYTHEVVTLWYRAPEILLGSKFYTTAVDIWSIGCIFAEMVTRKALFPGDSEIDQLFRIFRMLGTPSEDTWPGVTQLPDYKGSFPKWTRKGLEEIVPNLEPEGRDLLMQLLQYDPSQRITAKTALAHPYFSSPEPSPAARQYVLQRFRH
Chain of CDK3/Cyclin E1 (P24864 whole entry partner): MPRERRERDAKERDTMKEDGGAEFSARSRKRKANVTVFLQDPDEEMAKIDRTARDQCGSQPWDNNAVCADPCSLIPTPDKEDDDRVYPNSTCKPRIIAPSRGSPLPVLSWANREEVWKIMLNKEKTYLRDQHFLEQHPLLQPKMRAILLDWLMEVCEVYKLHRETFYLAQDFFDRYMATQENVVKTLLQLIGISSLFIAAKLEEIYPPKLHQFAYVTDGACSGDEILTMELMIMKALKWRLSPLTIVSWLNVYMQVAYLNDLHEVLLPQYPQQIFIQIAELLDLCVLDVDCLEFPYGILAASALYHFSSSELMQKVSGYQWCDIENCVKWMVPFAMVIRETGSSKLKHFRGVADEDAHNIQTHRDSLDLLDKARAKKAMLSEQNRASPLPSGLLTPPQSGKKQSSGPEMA

[15] = biological target: CDK13/Cyclin K (Homo sapiens, UniProt Q14004); experiment: NanoBRET live-cell target engagement, CDK13-NanoLuc/Cyclin K in HEK-293; type: binding; details: CDK13/K, 10µM
[16] = biological target: CDK1/Cyclin E1 (Homo sapiens, UniProt P06493); experiment: NanoBRET live-cell target engagement, CDK1-NanoLuc/Cyclin E1 in HEK-293; type: binding; details: CDK1/E1, 10µM
[17] = biological target: CDK19/Cyclin C (Homo sapiens, UniProt Q9BWU1); experiment: NanoBRET live-cell target engagement, NanoLuc-CDK19/Cyclin C in HEK-293; details: 10µM
[18] = biological target: T1, CDK11A/Cyclin L2 (Homo sapiens, UniProt Q9UQ88); experiment: NanoBRET live-cell target engagement, CDK11A-NanoLuc/Cyclin L2 in HEK-293; type: binding; details: CDK11a/L2, 10µM
T1 sequence (Q9UQ88 1-783): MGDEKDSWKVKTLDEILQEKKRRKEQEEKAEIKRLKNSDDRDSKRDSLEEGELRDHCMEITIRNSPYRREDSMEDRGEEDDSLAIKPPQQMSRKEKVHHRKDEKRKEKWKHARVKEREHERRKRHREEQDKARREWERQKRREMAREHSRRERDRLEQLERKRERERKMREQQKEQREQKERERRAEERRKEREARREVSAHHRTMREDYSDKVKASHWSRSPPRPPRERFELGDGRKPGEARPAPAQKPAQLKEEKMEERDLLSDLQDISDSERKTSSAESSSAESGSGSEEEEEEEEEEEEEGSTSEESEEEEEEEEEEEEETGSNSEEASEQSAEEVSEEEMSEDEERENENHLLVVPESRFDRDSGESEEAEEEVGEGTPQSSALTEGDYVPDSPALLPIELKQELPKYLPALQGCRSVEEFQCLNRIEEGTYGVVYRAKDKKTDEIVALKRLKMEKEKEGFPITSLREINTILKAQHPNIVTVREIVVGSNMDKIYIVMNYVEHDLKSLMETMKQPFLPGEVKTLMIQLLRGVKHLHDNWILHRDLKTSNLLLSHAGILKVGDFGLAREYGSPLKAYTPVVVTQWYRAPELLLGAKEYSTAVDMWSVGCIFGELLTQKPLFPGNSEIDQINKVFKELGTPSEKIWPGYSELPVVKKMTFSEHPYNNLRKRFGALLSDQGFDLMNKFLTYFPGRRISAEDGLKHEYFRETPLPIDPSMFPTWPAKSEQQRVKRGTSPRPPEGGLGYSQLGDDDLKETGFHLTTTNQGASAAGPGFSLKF

[19] = biological target: CDK20/Cyclin H (Homo sapiens, UniProt Q8IZL9); experiment: NanoBRET live-cell target engagement, NanoLuc-CDK20/Cyclin H in HEK-293; type: binding; details: 10µM
[20] = average of replicates, read-out: Inhibition at 10µM (%) Average
[21] = read-out: Inhibition at 10µM (%) Replicate 1
[22] = read-out: Inhibition at 10µM (%) Replicate 2

How did the inhibition at 10 µM [1, 20] turn out when `COc1cc(F)ccc1-c1ncnc(Nc2cccc(C[S@](C)(=N)=O)c2)n1` [Atuveciclib] was run?
Its inhibition at 10 µM is 16.8%.

What about the inhibition at 10 µM [1, 21] of the same compound?
Its inhibition at 10 µM is 22%.

What about the inhibition at 10 µM [1, 22] of the same compound?
The inhibition at 10 µM was 11.6%.

What about the inhibition at 10 µM [2, 20] of the same compound?
The inhibition at 10 µM was 97.9%.

What about the inhibition at 10 µM [2, 21] of the same compound?
Its inhibition at 10 µM is 98.1%.

What about the inhibition at 10 µM [2, 22] of the same compound?
The inhibition at 10 µM was 97.6%.

What about the inhibition at 10 µM [3, 21] of the same compound?
The inhibition at 10 µM was 39.3%.

What about the inhibition at 10 µM [3, 22] of the same compound?
The inhibition at 10 µM was 37.9%.

And the inhibition at 10 µM [4, 20]?
The inhibition at 10 µM was 3%.

What about the inhibition at 10 µM [4, 21] of the same compound?
Its inhibition at 10 µM is 8.4%.

What about the inhibition at 10 µM [4, 22] of the same compound?
Its inhibition at 10 µM is -2.5%.

And the inhibition at 10 µM [5, 20]?
Its inhibition at 10 µM is 3%.

What about the inhibition at 10 µM [5, 21] of the same compound?
The inhibition at 10 µM was -1%.

And the inhibition at 10 µM [5, 22]?
The inhibition at 10 µM was 7%.

And the inhibition at 10 µM [6, 20]?
Its inhibition at 10 µM is 31%.

What about the inhibition at 10 µM [6, 21] of the same compound?
Its inhibition at 10 µM is 30.9%.

What about the inhibition at 10 µM [6, 22] of the same compound?
The inhibition at 10 µM was 31.1%.

What about the inhibition at 10 µM ([7]; read-out: Inhibition at 10µM (%) Average, CDK10/L2, average of replicates) of the same compound?
The inhibition at 10 µM was 6.3%.

And the inhibition at 10 µM ([7]; read-out: Inhibition at 10µM (%) Replicate 1, CDK10/L2)?
The inhibition at 10 µM was 9.2%.

What about the inhibition at 10 µM ([7]; read-out: Inhibition at 10µM (%) Replicate 2, CDK10/L2) of the same compound?
The inhibition at 10 µM was 3.4%.

What about the inhibition at 10 µM ([8]; read-out: Inhibition at 10µM (%) Average, CDK12/K, average of replicates) of the same compound?
Its inhibition at 10 µM is 8.2%.

And the inhibition at 10 µM ([8]; read-out: Inhibition at 10µM (%) Replicate 1, CDK12/K)?
The inhibition at 10 µM was 3%.

And the inhibition at 10 µM ([8]; read-out: Inhibition at 10µM (%) Replicate 2, CDK12/K)?
The inhibition at 10 µM was 13.3%.

What about the inhibition at 10 µM [9, 20] of the same compound?
The inhibition at 10 µM was 7.4%.

What about the inhibition at 10 µM [9, 21] of the same compound?
The inhibition at 10 µM was 11.9%.

And the inhibition at 10 µM [9, 22]?
The inhibition at 10 µM was 2.9%.

What about the inhibition at 10 µM [10, 20] of the same compound?
The inhibition at 10 µM was 31.5%.

And the inhibition at 10 µM [10, 21]?
The inhibition at 10 µM was 53.7%.

What about the inhibition at 10 µM [10, 22] of the same compound?
Its inhibition at 10 µM is 9.3%.

What about the inhibition at 10 µM [11, 20] of the same compound?
The inhibition at 10 µM was 41.7%.

What about the inhibition at 10 µM [11, 21] of the same compound?
Its inhibition at 10 µM is 42.9%.

And the inhibition at 10 µM [11, 22]?
The inhibition at 10 µM was 40.5%.

And the inhibition at 10 µM [12, 20]?
The inhibition at 10 µM was 26.1%.

And the inhibition at 10 µM [12, 21]?
Its inhibition at 10 µM is 23.9%.

What about the inhibition at 10 µM [12, 22] of the same compound?
The inhibition at 10 µM was 28.3%.

What about the inhibition at 10 µM [13, 20] of the same compound?
The inhibition at 10 µM was 4.5%.

And the inhibition at 10 µM [13, 21]?
The inhibition at 10 µM was 2%.

What about the inhibition at 10 µM [13, 22] of the same compound?
The inhibition at 10 µM was 7.1%.

What about the inhibition at 10 µM [14, 20] of the same compound?
Its inhibition at 10 µM is 48.4%.

What about the inhibition at 10 µM [14, 21] of the same compound?
The inhibition at 10 µM was 47.3%.

What about the inhibition at 10 µM [14, 22] of the same compound?
The inhibition at 10 µM was 49.6%.

And the inhibition at 10 µM [15, 20]?
The inhibition at 10 µM was 4.8%.

What about the inhibition at 10 µM [15, 21] of the same compound?
The inhibition at 10 µM was 8%.

What about the inhibition at 10 µM [15, 22] of the same compound?
Its inhibition at 10 µM is 1.6%.

What about the inhibition at 10 µM [16, 20] of the same compound?
The inhibition at 10 µM was 16.6%.

And the inhibition at 10 µM [16, 21]?
Its inhibition at 10 µM is 19.4%.

And the inhibition at 10 µM [16, 22]?
Its inhibition at 10 µM is 13.8%.

What about the inhibition at 10 µM ([17]; read-out: Inhibition at 10µM (%) Average, CDK19/C, average of replicates) of the same compound?
Its inhibition at 10 µM is 11.1%.

What about the inhibition at 10 µM ([17]; read-out: Inhibition at 10µM (%) Replicate 1, CDK19/C) of the same compound?
Its inhibition at 10 µM is 12.3%.

What about the inhibition at 10 µM ([17]; read-out: Inhibition at 10µM (%) Replicate 2, CDK19/C) of the same compound?
Its inhibition at 10 µM is 9.9%.

What about the inhibition at 10 µM [18, 20] of the same compound?
Its inhibition at 10 µM is 10%.

And the inhibition at 10 µM [18, 21]?
The inhibition at 10 µM was 12.3%.

What about the inhibition at 10 µM [18, 22] of the same compound?
Its inhibition at 10 µM is 7.6%.

And the inhibition at 10 µM ([19]; read-out: Inhibition at 10µM (%) Replicate 1, CDK20/H)?
Its inhibition at 10 µM is 1.3%.

What about the inhibition at 10 µM ([19]; read-out: Inhibition at 10µM (%) Replicate 2, CDK20/H) of the same compound?
The inhibition at 10 µM was 1.3%.
